Assay results taken from patent publication US20260355115A1, “SUSTAINED-RELEASE MICROSPHERES INCLUDING GLP-1 RECEPTOR AGONIST OR PHARMACEUTICALLY ACCEPTABLE SALT THEREOF AND USE THEREOF” (PEPTRON, INC., priority 2022, published 2026).

Key:
[1] = Pharmacokinetic profile of sustained-release formulation in minipigs (s.c., LC-MS/MS of blood); assay type: in vivo; conditions: 0.08 mpk
Description: Next, in order to evaluate the pharmacokinetics in medium-sized animals, the sustained-release formulation of Example 3 according to the present invention was administered to minipigs, and the drug release patterns within the microspheres in the body were evaluated.
After subcutaneous injection (S.C) of drug at a dose of 0.08 mpk (mg/kg) into 20 to 30 kg of male SPF minipigs, the blood concentration of semaglutide was observed over time. A 2.5 ml of blood was collected from the jugular vein at 1 hour, 6 hours, 12 hours, 24 hours, 2 days, 3 days, 5 days, 7 days, 9 days, 11 days, 14 days, 16 days, 18 days, 21 days, 24 days, 28 days, 31 days, 35 days, 42 days, 49 days, 56 days, 63 days, and 70 days (total 23 points) after injection, respectively, stored at −80 °C, and then subjected to LC-MS/MS analysis.

[2] = Evaluation of anti-obesity efficacy in diet-induced obesity (DIO) mouse model; assay type: in vivo, C57BL/6J-DIO mice; conditions: 0.1 mpk s.c. QD, 8 weeks, 60% HFD
Description: The sustained-release formulation of Example 3 according to the present invention was administered to a diet-induced obesity (DIO) mouse model to confirm the anti-obesity efficacy.
Sixteen-week-old male C57BL/6J and C57BL/6J-DIO mice (The Jackson Laboratory (JAX), Saeron Bio) were used in the study. After introduction, the mice were sufficiently fed with a regular chow diet (5 kcal % of fat, PicoLab, #5053, USA) or a high fat diet (60 kcal % of fat, Research diet, D12492, USA) together with water, maintained at a temperature of 22±2 °C and a humidity of 50±10%, and acclimated in individual cages under an automatically controlled 12-hour light/dark cycle (dark: 7 pm to 7 am). After one week of acclimation, all prepared subjects were administered and acclimated, and clinical signs (activity, stool abnormalities, bleeding, wounds, deformities, skin, hair, eye abnormalities, etc.) were observed twice a day (when administered in the morning and when monitored in the afternoon).
To evaluate body weight and food intake, the drug was administered for 8 weeks under conditions described in Table 6, and body weight (FX-2000i, A&D company, 0.01 to 2200 g) and food intake (CSG201F, OHAUS, 0.1 g to 200 g) were measured daily starting from the first day of administration. All result values were expressed as the mean±standard error, and the statistical significance of the group was calculated through an independent t-test between test substance administration groups.
The body weight measurement results were shown in FIG. 5A, and the body weight gain rate (ΔBody weight from baseline (vs Con(-)), %) was shown in FIG. 5B. This was shown as the body weight change (%) calculated by comparing the drug-administered groups to the negative control group.

CC[C@H](C)[C@H](NC(=O)[C@H](Cc1ccccc1)NC(=O)[C@H](CCC(=O)O)NC(=O)[C@H](CCCCNC(=O)COCCOCCNC(=O)COCCOCCNC(=O)CC[C@H](NC(=O)CCCCCCCCCCCCCCCCC(=O)O)C(=O)O)NC(=O)[C@H](C)NC(=O)[C@H](C)NC(=O)[C@H](CCC(N)=O)NC(=O)CNC(=O)[C@H](CCC(=O)O)NC(=O)[C@H](CC(C)C)NC(=O)[C@H](Cc1ccc(O)cc1)NC(=O)[C@H](CO)NC(=O)[C@H](CO)NC(=O)[C@@H](NC(=O)[C@H](CC(=O)O)NC(=O)[C@H](CO)NC(=O)[C@@H](NC(=O)[C@H](Cc1ccccc1)NC(=O)[C@@H](NC(=O)CNC(=O)[C@H](CCC(=O)O)NC(=O)C(C)(C)NC(=O)[C@@H](N)Cc1cnc[nH]1)[C@@H](C)O)[C@@H](C)O)C(C)C)C(=O)N[C@@H](C)C(=O)N[C@@H](Cc1c[nH]c2ccccc12)C(=O)N[C@@H](CC(C)C)C(=O)N[C@H](C(=O)N[C@@H](CCCNC(=N)N)C(=O)NCC(=O)N[C@@H](CCCNC(=N)N)C(=O)NCC(=O)O)C(C)C [semaglutide, N^6,26-{18-[N-(17carboxyheptadecanoyl)-L-γ-glutamyl]-10-oxo-3,6,12,15-tetraoxa-9,18-diazaoctanoyl}-[8 (2-amino-2-propanoic acid), 34-L-arginine] human glucagon-like peptide 1(7-37)]
Initial burst release or delayed release ([1]; formulation containing the microspheres of Example 3): no initial burst release or delayed release in minipigs | Release duration of semaglutide ([1]; formulation containing the microspheres of Example 3, compared with S.D. rats): longer in minipigs | Body weight loss rate (ΔBody weight from baseline vs Con(-)) [2]: statistically significant (p<0.05) body weight loss rate | Body weight vs negative control group [2]: statistically significant decrease (p<0.05) in body weight | Food intake vs negative control group [2]: statistically significant decrease (p<0.05) in food intake
